pIC50: −log10 of the molar value.
Legend:
[1] = system: Trypanosoma brucei brucei; assay: GSK_TCAKS: pIC50 Trypanosoma brucei viability assay using luminiscence. Assay plates (1536-well) were prepared. T. brucei cultures were harvested and counted in a CASY cell counter. A parasite suspension was prepared at a final concentration of 5 * 10^4 cells/mL in complete HMI9 medium and 6uL was dispensed to all wells containing compounds using a Multidrop Combi dispenser. 6uL of HMI9 media with 0.4% DMSO were dispensed to control columns. Plates were incubated for 24 h at 37C, 5% CO2 then tempered for 10 min at room temperature. ATP content was quantified by adding 4 uL of CellTiter-Glo Reagent (Promega) according to the manufacturer's instructions. Luminescence was measured using a ViewLux.; assay type: functional, organism-based; conditions: Lister 427, CASY
Leishmania donovani [2] = assay: GSK_TCAKS: pIC50 Leishmania donovani viability assay using fluorescence intensity. Assay plates (1536-well) were prepared by adding 30nL per well of compound. For single shot assay, the final compound concentration was 5uM. […] Briefly, eGFP LdBOB axenic amastigotes were harvested, fixed and counted in a CASY cell counter (Roche-Applied Science). A final concentration of 1.5 * 10^5 cells per well were prepared in amastigote media containing 500 U/mL penicillin/streptomycin (Invitrogen) and 6uL was dispensed to each experimental well using a Multidrop Combi dispenser (Thermo Scientific). 6uL of assay media was dispensed to control columns used as reference for 100% compound response. Following incubation for 72 h at 37C, 5% CO2, 2 uL of resazurin was added to each well at a final concentration of 0.5 mM in phosphate buffered saline (PBS) with IGEPAL (Sigma-Aldrich), 0.05% (v/v).; assay type: functional, organism-based
Trypanosoma cruzi [3] = assay: (§1) GSK_TCAKS: pIC50 Trypanosoma cruzi Imaging: Infected Cells. […] Cells were then washed once with PBS before infection. T. cruzi trypomastigotes, collected at days 5 to 8 after infection from LLC-MK2 parasite infected cultures, were allowed to swim out for 4h at 37C from a centrifuged pellet (2,500 rpm/10 min/room temperature). Trypomastigotes were then collected and counted in a CASY Cell Counter. Trypomastigotes, in supplemented DMEM, were added to H9c2 cultures in a multiplicity of infection of 1 and incubated for 18 h. Cells were washed once with PBS before incubation of the infected H9c2 monolayer with trypsin (Life-Technologies) to detach cells from the flask. Cells were counted in a CASY Cell Counter using a 150 um capillary and their density set at 5 * 10^4 cells per mL in supplemented assay DMEM. Infected H9c2 were dispensed into 384-well poly-lysine coated assay plates at 50uL per well using a Multidrop Combi dispenser. After seeding them, the plates were incubated at 37C, 5% CO2 for 72h. Cultures were then fixed and stained by addition of 50 uL of a solution containing 8% formaldehyde and 4 uM DRAQ5 DNA dye (BioStatus, UK) per well. […] Five images were collected per well for reliable statistical analysis. Automated image analysis was performed with a script developed on Acapella High Content Imaging and Analysis Software (PerkinElmer). Output: percentage of infected cells per well as a second infection marker.; assay type: functional, organism-based, Rattus norvegicus; conditions: H9c2, 4 h
[4] = molecular target: Sterol 14-alpha demethylase (Trypanosoma cruzi (strain CL Brener), UniProt Q7Z1V1); assay: GSK_TCAKS: pIC50 CYP51 from Trypanosoma cruzi.; assay type: functional
Leishmania donovani [5] = assay: (§2) GSK_TCAKS: pIC50 Leishmania donovani Imaging: Amastigotes/Macrophages. Assay plates (384-well) were prepared by adding 250nL of compound to each well. For single shot assay, the final compound concentration was 5 uM. […] Automated image analysis was performed with a script developed on Acapella High Content Imaging and Analysis Software (PerkinElmer). Output: Average number of amastigotes per macrophage cell were reported for each well.; assay type: functional, organism-based, Homo sapiens; conditions: THP-1
Trypanosoma cruzi [6] = assay: GSK_TCAKS: pIC50 Trypanosoma cruzi Imaging: Amastigotes/Cell. […] Cells were then washed once with PBS before infection. T. cruzi trypomastigotes, collected at days 5 to 8 after infection from LLC-MK2 parasite infected cultures, were allowed to swim out for 4h at 37C from a centrifuged pellet (2,500 rpm/10 min/room temperature). Trypomastigotes were then collected and counted in a CASY Cell Counter. Trypomastigotes, in supplemented DMEM, were added to H9c2 cultures in a multiplicity of infection of 1 and incubated for 18 h. Cells were washed once with PBS before incubation of the infected H9c2 monolayer with trypsin (Life-Technologies) to detach cells from the flask. Cells were counted in a CASY Cell Counter using a 150 um capillary and their density set at 5 * 10^4 cells per mL in supplemented assay DMEM. Infected H9c2 were dispensed into 384-well poly-lysine coated assay plates at 50uL per well using a Multidrop Combi dispenser. After seeding them, the plates were incubated at 37C, 5% CO2 for 72h. Cultures were then fixed and stained by addition of 50 uL of a solution containing 8% formaldehyde and 4 uM DRAQ5 DNA dye (BioStatus, UK) per well. […] Five images were collected per well for reliable statistical analysis. Automated image analysis was performed with a script developed on Acapella High Content Imaging and Analysis Software (PerkinElmer). Output: number of amastigotes per cell as infection level measurement.; assay type: functional, organism-based, Rattus norvegicus; conditions: H9c2, 4 h
Leishmania donovani [7] = assay: as §2, with “THP-1 Host Macrophages.” for “Amastigotes/Macrophages.”, “THP-1” for “Average number of amastigotes per macrophage”, “cell count” for “cell”; assay type: functional, organism-based, Homo sapiens
Leishmania donovani [8] = assay: as §2, with “Infected Macrophages.” for “Amastigotes/Macrophages.”, “Percent” for “Average number”, “infected” for “amastigotes per”, “cells” for “cell”; assay type: functional, organism-based, Homo sapiens; conditions: THP-1
Trypanosoma cruzi [9] = assay: as §1, with “H2C9” for “Trypanosoma cruzi”, “H9c2 Host Cardiomyocytes.” for “Infected Cells.”, “Number” for “percentage”, “H9c2 Host Cardiomyocytes nuclei to determine drug-related cytotoxicity.” for “infected cells per well as a second infection marker.”; assay type: functional, organism-based, Rattus norvegicus; conditions: H9c2, 4 h
Trypanosoma cruzi [10] = assay: GSK_TCAKS: pIC50 Trypanosoma cruzi viability assay using beta-GAL activity. This assay was run at single shot at 5uM compound concentration per well. The biological reagents consisted of NIH-3T3 host cells and trypomastigotes parasitic cells; both cell types were set to a 3.3 * 10^5 cells/mL dilution in assay DMEM by means of a CASY cell counter device using a 60um capillary. 6 uL of the mixture were dispensed per well (about 1 * 10^3 host-cells and 1 * 10^3 parasites) with a Multidrop Combi dispenser. […] In all wells, the percentage of DMSO never exceeded 0.5%. Plates incubated for four days at 37C, 5% CO2. The substrate used for the assay fluorescence intensity (FLINT) readout was resorufin-beta-D-galactopiranoside (Sigma-Aldrich) at 5uM per well. It was diluted in PBS supplemented with the soft detergent Igepal (Fluka).; assay type: functional, organism-based, Mus musculus; conditions: Tulahuen, NIH3T3
[11] = GSK_TCAKS: pIC50 HepG2 human cell line viability assay using luminiscence. […] Seeding density was checked to ensure that new mono-layers were not more than 50% confluent at the time of harvesting. Cell suspension was added to 500 mL of the same medium at a final density of 1.2 * 10^5 cells/mL. This cell suspension was dispensed (25 uL, 3000 cells per well) into 384-well clear-bottom plates using a Multidrop Combi dispenser. Prior to addition of the cell suspension, the screening compounds (250 nL) were pre-dispensed into the plates with an Echo liquid handler. Plates were incubated for 48 h at 37C, 5% CO2. After incubation, plates equilibrated at room temperature for 30 min before proceeding to develop the luminescent signal. The signal developer, CellTiter-Glo Reagent, was allowed to equilibrate at room temperature for 30 min and added to the plates (25uL per well) using a Multidrop Combi dispenser. Plates were left for 10 min at room temperature for stabilization and then read using a ViewLux.; assay type: toxicity, cell-based
[12] = system: Trypanosoma brucei brucei; assay: GSK_TCAKS: pIC50 Trypanosoma brucei viability assay using fluorescence intensity. Assay plates (1536-well) were prepared by dispensing 25nL of compound solution per well using an Echo acoustic dispenser (Labcyte).; assay type: functional, organism-based; conditions: Lister 427, 2 h

Sterol 14-alpha demethylase, sequence (Q7Z1V1 whole entry): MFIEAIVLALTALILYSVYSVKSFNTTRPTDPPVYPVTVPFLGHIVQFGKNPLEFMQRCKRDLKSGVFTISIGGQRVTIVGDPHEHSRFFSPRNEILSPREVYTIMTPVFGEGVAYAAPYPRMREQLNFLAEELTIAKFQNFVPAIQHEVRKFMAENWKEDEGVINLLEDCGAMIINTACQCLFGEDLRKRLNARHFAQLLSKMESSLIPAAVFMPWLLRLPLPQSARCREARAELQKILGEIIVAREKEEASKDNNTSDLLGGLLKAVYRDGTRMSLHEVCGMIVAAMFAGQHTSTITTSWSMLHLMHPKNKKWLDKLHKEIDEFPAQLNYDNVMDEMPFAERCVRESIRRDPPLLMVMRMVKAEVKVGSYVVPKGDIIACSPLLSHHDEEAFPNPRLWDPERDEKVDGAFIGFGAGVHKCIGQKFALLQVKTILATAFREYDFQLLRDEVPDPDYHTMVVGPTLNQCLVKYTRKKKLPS

SMILES | pIC50 [1] | pIC50 (Leishmania donovani [2]) | pIC50 (Trypanosoma cruzi [3]) | pIC50 [4] | pIC50 (Leishmania donovani [5]) | pIC50 (Trypanosoma cruzi [6]) | pIC50 (Leishmania donovani [7]) | pIC50 (Leishmania donovani [8]) | pIC50 (Trypanosoma cruzi [9]) | pIC50 (Trypanosoma cruzi [10]) | IC50 at 48 h [11] | pIC50 [12]
O=C(N[C@H](CO)c1ccccc1)c1ccc(-c2c[nH]c3nccc(C(F)(F)F)c23)s1 | 6.40 | 4.50 | 5.00 | 5.20 | 4.80 | 5.00 | 4.90 | 4.60 | 4.90 | 5.10 | 63.1 µM | 6.80
O=C(CCc1ccc(-c2ccccc2)o1)N1CCN(c2ccc(O)cc2)CC1 | 4.40 | 5.00 | 5.90 | 5.60 | 5.90 | 6.10 | < 4.30 | 5.40 | < 4.30 | 5.50 | > 100 µM | 4.60
COc1cnc2ccc(=O)n(CCN3CCC(NC(=O)Cc4ccc(Cl)c(Cl)c4)CC3)c2c1 | 6.30 | 5.30 | 6.40 | 6.10 | 5.30 | 6.80 | 4.60 | 4.40 | 5.20 | 6.50 | 63.1 µM | 6.60
O=C(CN1CCN(c2ccccn2)CC1)Nc1cc(S(=O)(=O)N2CCCCCC2)ccc1Cl | 4.60 | 5.10 | 5.10 | 5.50 | 5.90 | 5.20 | 4.30 | 5.20 | < 4.30 | 5.00 | > 100 µM | 4.90
CC(C)COC(=O)Nc1ccc(N2CCC(CNS(=O)(=O)c3ccccc3)CC2)c(F)c1 | 4.70 | 5.40 | 5.10 | 5.70 | 5.90 | 5.10 | < 4.30 | 5.70 | < 4.10 | 5.00 | > 100 µM | 5.60
Cn1c(CC(=O)NNC(=O)c2ccc3ccccc3n2)nc2ccccc21 | 5.20 | 5.20 | 5.30 | 4.50 | 6.10 | 5.20 | < 4.30 | 5.90 | < 4.30 | 5.50 | > 100 µM | 5.10
O=C(NNC(=O)c1ccccn1)c1ccc(-c2ccccc2)cc1 | 6.20 | 5.50 | 5.80 | 4.50 | 5.50 | 5.90 | 5.50 | 5.20 | 5.70 | 5.80 | > 100 µM | 6.50
COc1ccc(C(=O)Nc2ccc(NC(=O)CO)cc2)cc1 | 6.60 | < 4.30 | < 4.30 | < 4.00 | < 4.30 | < 4.30 | 4.70 | < 4.30 | < 4.30 | < 4.30 | > 100 µM | 6.60
CN(C)S(=O)(=O)c1ccc(Cl)c(C(=O)Nc2nc(-c3ccccn3)cs2)c1 | 6.40 | 5.70 | 5.70 | 4.50 | 5.30 | 5.90 | 5.20 | 5.00 | 5.20 | 5.80 | > 100 µM | 6.30

— ChEMBL document CHEMBL3430912, “GSK Tres Cantos Anti-Kinetoplastid Screening (TCAKS) Data”
